Source: patent publication US8741934B2, “Inhibitors of ion channels” (Pfizer Limited, priority 2007, dated 2014)

Biological target: T1, hSCN3A sodium channels (Homo sapiens, UniProt Q9NY46)
T1 construct: expressed in transfected cells
Assay: hSCN3A electrophysiology, Ionworks Quattro automated platform (Table C)
Format: cell-based
Conditions: for inhibition at 3 µM: 3 μM compound, read-out: SCN3A % INHIB HTS IWQ 3 μM; for inhibition at 10 µM: 10 μM compound, read-out: SCN3A % INHIB HTS IWQ 10 μM; for SCN3A INHIB INACT DRC EP IWQ EMAX: Emax of dose-response curve, inactivated state; for IC50: read-out: SCN3A IWQ IC-50
Procedure, shortened: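 HEK cells stably expressing hSCN3A were recorded in perforated-patch mode with 100 μg/ml amphotericin on Ionworks Quattro. The protocol used an inactivating step, a brief hyperpolarized partial recovery, then a depolarized test step. Inhibition was taken from current amplitude before versus after compound addition.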

T1 sequence (Q9NY46 whole entry): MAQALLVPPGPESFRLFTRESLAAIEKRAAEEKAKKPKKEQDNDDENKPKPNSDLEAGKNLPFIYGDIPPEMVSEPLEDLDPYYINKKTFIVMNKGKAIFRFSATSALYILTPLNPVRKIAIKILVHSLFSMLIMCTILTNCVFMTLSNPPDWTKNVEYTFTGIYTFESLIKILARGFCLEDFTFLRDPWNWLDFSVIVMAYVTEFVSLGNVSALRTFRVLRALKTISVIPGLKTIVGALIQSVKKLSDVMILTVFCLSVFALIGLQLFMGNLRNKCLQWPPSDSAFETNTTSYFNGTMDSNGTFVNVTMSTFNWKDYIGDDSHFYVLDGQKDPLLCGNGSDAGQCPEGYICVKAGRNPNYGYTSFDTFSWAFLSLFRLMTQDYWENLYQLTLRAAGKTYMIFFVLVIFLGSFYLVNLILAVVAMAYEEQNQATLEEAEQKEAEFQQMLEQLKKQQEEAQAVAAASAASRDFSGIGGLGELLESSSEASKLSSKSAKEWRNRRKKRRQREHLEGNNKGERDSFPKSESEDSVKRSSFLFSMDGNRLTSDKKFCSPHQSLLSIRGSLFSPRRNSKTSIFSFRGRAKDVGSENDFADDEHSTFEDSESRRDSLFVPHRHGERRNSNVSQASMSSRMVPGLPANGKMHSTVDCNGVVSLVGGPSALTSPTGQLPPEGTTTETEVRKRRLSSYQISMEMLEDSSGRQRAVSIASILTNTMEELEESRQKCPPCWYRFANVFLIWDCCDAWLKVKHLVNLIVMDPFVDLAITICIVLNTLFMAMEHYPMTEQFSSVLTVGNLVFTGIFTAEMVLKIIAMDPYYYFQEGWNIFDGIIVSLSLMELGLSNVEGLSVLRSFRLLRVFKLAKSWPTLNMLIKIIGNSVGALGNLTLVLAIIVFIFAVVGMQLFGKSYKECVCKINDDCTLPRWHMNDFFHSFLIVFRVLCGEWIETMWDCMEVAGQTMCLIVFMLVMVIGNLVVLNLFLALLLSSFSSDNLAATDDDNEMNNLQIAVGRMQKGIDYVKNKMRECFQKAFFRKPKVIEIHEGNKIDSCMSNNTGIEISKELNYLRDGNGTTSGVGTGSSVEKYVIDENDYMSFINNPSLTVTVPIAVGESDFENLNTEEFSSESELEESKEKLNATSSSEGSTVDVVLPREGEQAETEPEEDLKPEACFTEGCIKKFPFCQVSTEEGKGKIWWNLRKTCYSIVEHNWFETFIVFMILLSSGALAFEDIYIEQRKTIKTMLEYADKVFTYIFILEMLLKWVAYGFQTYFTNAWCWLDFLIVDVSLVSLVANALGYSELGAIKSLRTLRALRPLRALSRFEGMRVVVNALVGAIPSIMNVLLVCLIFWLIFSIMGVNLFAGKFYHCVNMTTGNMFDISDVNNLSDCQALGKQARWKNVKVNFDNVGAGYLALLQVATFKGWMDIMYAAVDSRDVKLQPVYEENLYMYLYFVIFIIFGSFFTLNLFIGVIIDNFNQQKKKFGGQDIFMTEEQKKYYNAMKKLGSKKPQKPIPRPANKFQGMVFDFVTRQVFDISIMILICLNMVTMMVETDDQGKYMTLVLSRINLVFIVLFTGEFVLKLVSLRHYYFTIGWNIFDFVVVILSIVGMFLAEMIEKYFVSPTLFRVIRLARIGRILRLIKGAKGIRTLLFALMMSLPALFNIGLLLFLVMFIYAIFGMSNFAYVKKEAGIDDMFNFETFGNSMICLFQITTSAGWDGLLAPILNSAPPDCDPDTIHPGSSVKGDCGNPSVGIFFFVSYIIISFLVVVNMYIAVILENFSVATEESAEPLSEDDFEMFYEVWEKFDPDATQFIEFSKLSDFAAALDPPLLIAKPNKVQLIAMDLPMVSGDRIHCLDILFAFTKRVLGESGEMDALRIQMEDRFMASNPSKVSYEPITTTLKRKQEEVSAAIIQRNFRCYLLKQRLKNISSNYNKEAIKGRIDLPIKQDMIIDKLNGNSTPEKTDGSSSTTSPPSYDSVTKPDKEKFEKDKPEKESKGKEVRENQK

Row | SMILES | inhibition at 3 µM | inhibition at 10 µM | SCN3A INHIB INACT DRC EP IWQ EMAX | IC50
1 | CC(NC(=O)c1ccc(S(=O)(=O)Nc2nccs2)cc1)c1ccc(F)cc1 (stereo not drawn) [Example 103, N-[1-(4-fluorophenyl)ethyl]-4-[(1,3-thiazol-2-ylamino)sulfonyl]benzamide] | 21.2% | 46.8% | – | –
2 | O=C(c1ccc(S(=O)(=O)Nc2nccs2)cc1)N1CCOC(C2CC2)C1 (stereo not drawn) [Example 231, 4-[(2-Cyclopropylmorpholin-4-yl)carbonyl]-N-1,3-thiazol-2-yl-benzenesulfonamide] | 3.22% | -7.02% | – | –
3 | O=C(NCc1cccc(C(F)(F)F)c1)c1ccc(S(=O)(=O)Nc2nccs2)c(Cl)c1 [Example 288, 3-Chloro-4-[(1,3-thiazol-2-ylamino)sulfonyl]-N-[3-(trifluoromethyl)benzyl]benzamide] | 4.38% | 13.4% | – | –
4 | O=C(c1ccc(S(=O)(=O)Nc2nccs2)cc1)N1CCCC(Cc2ncccn2)C1 (stereo not drawn) [Example 237, 4-{[3-(Pyrimidin-2-ylmethyl)piperidin-1-yl]carbonyl}-N-1,3-thiazol-2-yl-benzenesulfonamide] | 24.7% | 17.6% | – | –
5 | Cc1ccc(F)cc1CNC(=O)c1ccc(S(=O)(=O)Nc2nccs2)cc1 [Example 58, N-(5-fluoro-2-methylbenzyl)-4-[(1,3-thiazol-2-ylamino)sulfonyl]benzamide] | 37.4% | 49.7% | – | –
6 | O=C(c1ccc(S(=O)(=O)Nc2nccs2)cc1)N1CCOC(CN2Cc3ccccc3C2=O)C1 (stereo not drawn) [Example 210, 4-({2-[(1-Oxo-1,3-dihydro-2H-isoindol-2-yl)methyl]morpholin-4-yl}carbonyl)-N-1,3-thiazol-2-ylbenzenesulfonamide] | 4.03% | 11.9% | – | –
7 | O=C1[C@@H]2CC[C@@H]3[C@H]1C(c1ccccc1)N(C(=O)c1ccc(S(=O)(=O)Nc4nccs4)cc1)[C@H]3C2 (stereo partly drawn) [Example 192, 4-{[(3S,3aR,6R,7aS)-8-oxo-2-phenyloctahydro-1H-3,6-methanoindol-1-yl]carbonyl}-N-1,3-thiazol-2-yl-benzenesulfonamide] | 6.18% | 26% | – | –
8 | O=C(N[C@@H]1CCC[C@@H]1c1ccccc1)c1ccc(S(=O)(=O)Nc2nccs2)cc1 [Example 138, N-[(1R,2R)-2-phenylcyclopentyl]-4-[(1,3-thiazol-2-ylamino)sulfonyl]benzamide] | 16.2% | 11.2% | – | –
9 | CN(CC1Cc2ccccc2O1)C(=O)c1ccc(S(=O)(=O)Nc2nccs2)cc1 (stereo not drawn) [Example 274, N-(2,3-dihydro-1-benzofuran-2-ylmethyl)-N-methyl-4-[(1,3-thiazol-2-ylamino)sulfonyl]benzamide] | 14.6% | 19.6% | – | –
10 | C[C@@H]([C@H](O)c1ccccc1)N(C)C(=O)c1ccc(S(=O)(=O)Nc2nccs2)cc1 [Example 188, N-[(1S,2R)-2-hydroxy-1-methyl-2-phenylethyl]-N-methyl-4-[(1,3-thiazol-2-ylamino)sulfonyl]benzamide] | 14.5% | 1.03% | – | –
11 | O=C(c1ccc(S(=O)(=O)Nc2nccs2)cc1)N1CCCC1Cc1ccccc1F (stereo not drawn) [Example 233, 4-{[2-(2-Fluorobenzyl)pyrrolidin-1-yl]carbonyl}-N-1,3-thiazol-2-yl-benzenesulfonamide] | 18.5% | 15.9% | – | –
12 | COc1ccc(CC2CCCN(C(=O)c3ccc(S(=O)(=O)Nc4nccs4)cc3)C2)cc1 (stereo not drawn) [Example 270, 4-{[3-(4-Methoxybenzyl)piperidin-1-yl]carbonyl}-N-1,3-thiazol-2-yl-benzenesulfonamide] | 19.2% | 45.7% | 53.7 | 27.7 µM
13 | Cc1cc(CC(NC(=O)c2ccc(S(=O)(=O)Nc3nccs3)cc2)c2ccc(F)cc2)on1 (stereo not drawn) [Example 156, N-[1-(4-fluorophenyl)-2-(3-methylisoxazol-5-yl)ethyl]-4-[(1,3-thiazol-2-ylamino)sulfonyl]benzamide] | 13.3% | 30.3% | – | –
14 | O=C(c1ccc(S(=O)(=O)Nc2nccs2)cc1)N1CCC(CCc2ccccc2)C1 (stereo not drawn) [Example 227, 4-{[3-(2-Phenylethyl)pyrrolidin-1-yl]carbonyl}-N-1,3-thiazol-2-yl-benzenesulfonamide] | 29.3% | 45.8% | 53 | 20.3 µM
15 | O=C(c1ccc(S(=O)(=O)Nc2nccs2)cc1)N1CCCO[C@H]1Cc1ccccc1 [Example 214, 4-{[(2S)-2-benzyl-1,3-oxazinan-3-yl]carbonyl}-N-1,3-thiazol-2-yl-benzenesulfonamide] | 9.25% | 4.51% | – | –
16 | O=C(c1ccc(S(=O)(=O)Nc2nccs2)cc1)N1CCCC(COc2cc(F)cc(F)c2)C1 (stereo not drawn) [Example 271, 4-({3-[(3,5-Difluorophenoxy)methyl]piperidin-1-yl}carbonyl)-N-1,3-thiazol-2-yl-benzenesulfonamide] | 35.8% | 41.4% | 52.4 | 26.4 µM
17 | Cc1ccc(C)c(C2CCCN2C(=O)c2ccc(S(=O)(=O)Nc3nccs3)cc2)c1 (stereo not drawn) [Example 202, 4-{[2-(2,5-Dimethylphenyl)pyrrolidin-1-yl]carbonyl}-N-1,3-thiazol-2-yl-benzenesulfonamide] | 15.8% | 13.7% | – | –

Row | SMILES | inhibition at 3 µM | inhibition at 10 µM | SCN3A INHIB INACT DRC EP IWQ EMAX | IC50
18 | O=C(c1ccc(S(=O)(=O)Nc2nccs2)cc1)N1CCCCC1c1cccc(F)c1 (stereo not drawn) [Example 221, 4-{[2-(3-Fluorophenyl)piperidin-1-yl]carbonyl}-N-1,3-thiazol-2-yl-benzenesulfonamide] | 19.9% | 21.8% | – | –
19 | O=C(NCCc1ccc(F)cc1)c1ccc(S(=O)(=O)Nc2nccs2)cc1 [Example 102, N-[2-(4-fluorophenyl)ethyl]-4-[(1,3-thiazol-2-ylamino)sulfonyl]benzamide] | 22.4% | 37.2% | – | –
20 | O=C(c1ccc(S(=O)(=O)Nc2nccs2)cc1)N1CCCC1c1ccccc1 (stereo not drawn) [Example 205, 4-[(2-Phenylpyrrolidin-1-yl)carbonyl]-N-1,3-thiazol-2-yl-benzenesulfonamide] | 11.3% | 27.3% | – | –
21 | CCN(C(=O)c1ccc(S(=O)(=O)Nc2nccs2)cc1)C(C)C(=O)c1ccccc1 (stereo not drawn) [Example 209, N-ethyl-N-(1-methyl-2-oxo-2-phenylethyl)-4-[(1,3-thiazol-2-yl-amino)sulfonyl]benzamide] | 5.72% | -5.23% | – | –
22 | O=C(c1ccc(S(=O)(=O)Nc2nccs2)cc1)N1CCCCC1CCn1cccn1 (stereo not drawn) [Example 190, 4-({2-[2-(1H-pyrazol-1-yl)ethyl]piperidin-1-yl}carbonyl)-N-1,3-thiazol-2-yl-benzenesulfonamide] | 2.77% | -8.21% | – | –
23 | O=C(c1ccc(S(=O)(=O)Nc2nccs2)cc1)N1CCCC(COc2ccc(F)cc2)C1 (stereo not drawn) [Example 264, 4-({3-[(4-Fluorophenoxy)methyl]piperidin-1-yl}carbonyl)-N-1,3-thiazol-2-yl-benzenesulfonamide] | 16.9% | 14.8% | – | –
24 | CC[C@H](NC(=O)c1ccc(S(=O)(=O)Nc2nccs2)cc1)c1ccccc1 [Example 145, N-[(1S)-1-phenylpropyl]-4-[(1,3-thiazol-2-ylamino)sulfonyl]benzamide] | 2.05% | 19.4% | – | –
25 | O=C(NCc1cc(F)ccc1C(F)(F)F)c1ccc(S(=O)(=O)Nc2nccs2)cc1 [Example 81, N-[5-fluoro-2-(trifluoromethyl)benzyl]-4-[(1,3-thiazol-2-ylamino)sulfonyl]benzamide] | 34.7% | 65.7% | – | –
26 | Cc1cccc(CNC(=O)c2ccc(S(=O)(=O)Nc3nccs3)cc2)c1 [Example 71, N-(3-methylbenzyl)-4-[(1,3-thiazol-2-ylamino)sulfonyl]benzamide] | 38.8% | 37.1% | – | –
27 | CN(CC(O)c1ccccc1)C(=O)c1ccc(S(=O)(=O)Nc2nccs2)cc1 (stereo not drawn) [Example 250, N-(2-hydroxy-2-phenylethyl)-N-methyl-4-[(1,3-thiazol-2-yl-amino)sulfonyl]benzamide] | -4.32% | 0.12% | – | –
28 | O=C(c1ccc(S(=O)(=O)Nc2nccs2)cc1)N1CCCCC1COc1ccccc1 (stereo not drawn) [Example 224, 4-{[2-(Phenoxymethyl)piperidin-1-yl]carbonyl}-N-1,3-thiazol-2-yl-benzenesulfonamide] | 3.47% | 9.34% | – | –
29 | O=C(c1ccc(S(=O)(=O)Nc2nccs2)cc1)N1CCCC(Cc2cncnc2)C1 (stereo not drawn) [Example 272, 4-{[3-(Pyrimidin-5 ylmethyl)piperidin-1-yl]carbonyl}-N-1,3-thiazol-2-yl-benzenesulfonamide] | 1.88% | 8.31% | – | –
30 | O=C(NC1(Cc2ccccc2Cl)CC1)c1ccc(S(=O)(=O)Nc2nccs2)cc1 [Example 129, N-[1-(2-chlorobenzyl)cyclopropyl]-4-[(1,3-thiazol-2-ylamino)sulfonyl]benzamide] | 13.6% | 24.2% | – | –
31 | CCc1ccc(C)nc1NC(=O)c1ccc(S(=O)(=O)Nc2nccs2)cc1 [Example 178, N-(3-ethyl-6-methylpyridin-2-yl)-4-[(1,3-thiazol-2-ylamino)sulfonyl]benzamide] | 2.71% | 1.55% | – | –
32 | CC(C)(NC(=O)c1ccc(S(=O)(=O)Nc2nccs2)cc1)c1cc(F)cc(F)c1 [Example 141, N-[1-(3,5-difluorophenyl)-1-methylethyl]-4-[(1,3-thiazol-2-ylamino)sulfonyl]benzamide] | 6.82% | 25% | – | –
33 | O=C(NCc1ccccc1OC(F)F)c1ccc(S(=O)(=O)Nc2nccs2)cc1 [Example 66, N-[2-(difluoromethoxy)benzyl]-4-[(1,3-thiazol-2-ylamino)sulfonyl]benzamide] | 16.4% | 34.4% | – | –
